Source: US11034692B1 (Genentech, Inc., priority 2017, dated 2021)

Key:
[1] = target: HPK1; experiment: HPK1 Lantha Binding Assay ("Lanth"); settings: Table B1-1, read-out: HPK1 Ki (μM) (Lanth)
Summary of the method: (§1)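 TR-FRET tracer displacement with 2 nM GST-tagged kinase, 2 nM Eu-anti-GST antibody and 15 nM Tracer222 at 23 C. Enzyme–antibody preincubated 1 h with compound, then tracer added for 1 h; 340 nm excitation, 615/665 nm emission. Ki from Morrison fit over an 11-point 5-fold dilution.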

[2] = target: HPK1 (Homo sapiens, UniProt Q92918); experiment: HPK1 Lantha Binding Assay ("Lanth"); settings: Table B1-1, read-out: HPK1 Ki (μM) (Lanth)
Summary of the method: as §1

[3] = target: HPK1-FL (HPK full length, T165E S171E) (Homo sapiens (Human), UniProt Q92918, S171E/T165E); experiment: HPK1-FL HTRF Enzymatic Assay ("HTRF"); assay type: biochemical; settings: ATP 1 mM, Table B1-2, read-out: HPK1 Ki, H = HTRF
Description: HPK1-FL HTRF Enzymatic Assay (“HTRF”)
HPK-FL enzyme phosphorylates Biotin-SLP-76 substrate in the presence of ATP at 1 mM and varying concentrations of test compound. Product is detected by FRET using Eu-anti-pSLP76 Ab and SA-XL665. See www.cisbio.com/HTRF for additional HTRF technology information.
Instrumentation: • Echo555 compound dispenser • Agilent Bravo • Perkin Elmer Envision
Materials: • Assay plate: White ProxiPlate 384 F (PerkinElmer cat #6008289) • Kinase: HPK full length double mutant • Substrate: Biotin-SLP76 • ATP: 100 mM ATP • BSG: 2% BSG • DMSO: DMSO (Sigma cat #34869-100ML) • Reaction Buffer: H2O/50 mM HEPES, pH 7.5/10 mM MgCl2/2 mM TCEP/0.01% Brij-35/0.01% BSG • Detection mix: Eu-anti-pSLP76/SA-XL665 (Cisbio, #610SAXAC)
Assay Procedure Ki Determination:
To a 384 well Proxiplate with 80 nL compound or DMSO spotted on was added 4 μl/well kinase mix. The mixture was preincubated for 30 minutes and then 4 μl/well substrate mix was added. The solution was incubated for 60 min and then 4 μl/well detection mix was added. The solution was incubated for another 60 min. The plates were then loaded onto a Perkin Elmer Envision and the TR-FRET signal was measured at 615 and 665 nm. A ratio of […] was used to calculate the % activity at each concentration of compound.

HPK1-FL (HPK full length, T165E S171E), sequence (Q92918 whole entry T165E/S171E): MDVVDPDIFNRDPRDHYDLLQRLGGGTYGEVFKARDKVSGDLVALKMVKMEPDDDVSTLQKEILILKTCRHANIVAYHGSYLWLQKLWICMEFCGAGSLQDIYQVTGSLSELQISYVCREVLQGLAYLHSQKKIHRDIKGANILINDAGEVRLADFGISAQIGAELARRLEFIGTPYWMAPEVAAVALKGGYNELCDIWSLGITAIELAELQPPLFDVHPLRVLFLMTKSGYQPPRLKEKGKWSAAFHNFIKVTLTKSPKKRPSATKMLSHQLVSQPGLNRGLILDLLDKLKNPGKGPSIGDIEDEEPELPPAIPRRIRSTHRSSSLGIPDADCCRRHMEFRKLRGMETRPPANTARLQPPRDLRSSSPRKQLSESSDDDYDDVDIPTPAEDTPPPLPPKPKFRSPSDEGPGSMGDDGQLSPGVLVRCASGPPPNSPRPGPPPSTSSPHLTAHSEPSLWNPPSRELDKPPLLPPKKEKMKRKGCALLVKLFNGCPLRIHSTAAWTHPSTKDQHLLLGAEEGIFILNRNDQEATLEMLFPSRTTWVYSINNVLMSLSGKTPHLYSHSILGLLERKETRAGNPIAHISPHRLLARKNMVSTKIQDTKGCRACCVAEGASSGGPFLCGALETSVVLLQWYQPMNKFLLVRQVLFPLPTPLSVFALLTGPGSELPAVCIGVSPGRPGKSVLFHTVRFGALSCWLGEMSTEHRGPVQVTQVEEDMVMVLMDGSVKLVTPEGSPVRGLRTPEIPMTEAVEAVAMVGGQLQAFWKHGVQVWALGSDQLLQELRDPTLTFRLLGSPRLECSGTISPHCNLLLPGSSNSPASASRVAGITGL
HPK1 (Homo sapiens, UniProt Q92918), sequence (Q92918 whole entry, looked up): as the sequence (Q92918 whole entry T165E/S171E) above, with E165T, E171S counted along it

Ki [2] [nM] | Ki [3] [nM] | Structure (SMILES) | also measured
– | 0.21 | Cc1c(N)cncc1-c1cc2cc(Nc3cc4n(n3)CC(=O)N(C)CC4)ncc2c(N)n1 [Compound 415, 2-((8-amino-6-(5-amino-4-methylpyridin-3-yl)-2,7-naphthyridin-3-yl)amino)-6-methyl-5,6-dihydro-4H-pyrazolo[1,5-d][1,4]diazepin-7(8H)-one] | –
– | 511 | CC(Oc1ccccn1)c1cc2cc(Nc3cc4n(n3)CC(=O)N(C(C)C)CC4)ncc2c(N)n1 (racemic) [Compound 419, (+/−)-2-((8-amino-6-(1-(pyridin-2-yloxy)ethyl)-2,7-naphthyridin-3-yl)amino)-6-isopropyl-5,6-dihydro-4H-pyrazolo[1,5-d][1,4]diazepin-7(8H)-one] | –
– | 0.013 | Cc1c(N)cncc1-c1cc2cc(Nc3cc4n(n3)CC(=O)N(C)CC43CC3)ncc2c(N)n1 [Compound 414, 2′-((8-amino-6-(5-amino-4-methylpyridin-3-yl)-2,7-naphthyridin-3-yl)amino)-6′-methyl-5′,6′-dihydrospiro[cyclopropane-1,4′-pyrazolo[1,5-d][1,4]diazepin]-7′(8′H)-one] | –
– | 1640 | CC(C)N1CCc2cc(Nc3cc4cc(C(C)n5ccccc5=O)nc(N)c4cn3)nn2CC1=O (racemic) [Compound 420, (+/−)-2-((8-amino-6-(1-(2-oxopyridin-1(2H)-yl)ethyl)-2,7-naphthyridin-3-yl)amino)-6-isopropyl-5,6-dihydro-4H-pyrazolo[1,5-d][1,4]diazepin-7(8H)-one] | –
– | 6.2 | Cc1cc(-c2ncco2)cc(F)c1-c1cc2cc(NC(=O)[C@H]3[C@H](C)[C@@H]3c3cnn(C)c3)ncc2c(N)n1 (single isomer, unassigned) [Compound 349, N-(8-amino-6-(2-fluoro-6-methyl-4-(oxazol-2-yl)phenyl)-2,7-naphthyridin-3-yl)-2-methyl-3-(1-methyl-1H-pyrazol-4-yl)cyclopropane-1-carboxamide] | –
– | 39.7 | Cc1cc(-c2ncco2)cc(F)c1-c1cc2cc(NC(=O)[C@H]3[C@@H](C)[C@@H]3c3cnn(C)c3)ncc2c(N)n1 (single isomer, unassigned) [Compound 350] | –
– | 5 | Cc1cc(C(N)=O)cc(F)c1-c1cc2cc(NC(=O)[C@@H]3C[C@H]3c3cnn(C)c3)ncc2c(N)n1 (single isomer, unassigned) [Compound 352] | –
– | 0.33 | Cc1cc(C(N)=O)cc(F)c1-c1cc2cc(NC(=O)[C@H]3C[C@@H]3c3cnn(C)c3)ncc2c(N)n1 (single isomer, unassigned) [Compound 351] | –
0.147 | – | Cc1ccc(O)cc1-c1cc2cc(NC(=O)[C@H]3C[C@@H]3c3cnn(C)c3)ncc2c(N)n1 (racemic) [Compound 268, (+/−)-trans-N-[8-amino-6-(5-hydroxy-2-methylphenyl)-2,7-naphthyridin-3-yl]-2-(1-methyl-1H-pyrazol-4-yl)cyclopropane-1-carboxamide] | –

The remaining lines, values behind:

Structure (SMILES) | Ki [2] [nM] | Ki [3] [nM] | also measured
Nc1nc(-c2ccc[nH]c2=O)cc2cc(NC(=O)C3CC3)ncc12 [Compound 42, N-(8-amino-6-(2-oxo-1,2-dihydropyridin-3-yl)-2,7-naphthyridin-3-yl) cyclopropanecarboxamide] | 5800 | – | Ki [1]: 0.0405 µM
Cc1ccncc1-c1nc(N)c2cnc(NC(=O)[C@@H]3C[C@H]3CC#N)cc2c1C (racemic) [Compound 205, (+/−)-trans-N-(8-amino-5-methyl-6-(4-methylpyridin-3-yl)-2,7-naphthyridin-3-yl)-2-(cyanomethyl)cyclopropanecarboxamide] | 0.0881 | – | –
Cc1c(-c2cc3cc(NC(=O)[C@@H]4C[C@@H]4F)ncc3c(N)n2)cnc2nc[nH]c12 (racemic) [Compound 52, (±)-cis-N-(8-amino-6-(7-methyl-1H-imidazo [4,5-b]pyridin-6-yl)-2,7-naphthyridin-3-yl)-2-fluorocyclopropanecarboxamide] | 2.98 | – | –
COc1ccc(Cn2cncc2[C@@H]2C[C@H]2C(=O)Nc2cc3cc(-c4cnccc4C)nc(N)c3cn2)cc1 (racemic) [Compound 145, (±)-trans-N-[8-amino-6-(4-methyl-3-pyridyl)-2,7-naphthyridin-3-yl]-2-[3-[(4-methoxyphenyl)methyl]imidazol-4-yl]cyclopropanecarboxamide] | 2 | – | –
Cc1ccncc1-c1cc2cc(Nc3cnn(C(C)CO)c3)ncc2c(N)n1 (racemic) [Compound 213, (+/−)-2-(4-(8-amino-6-(4-methylpyridin-3-yl)-2,7-naphthyridin-3-ylamino)-1H-pyrazol-1-yl)propan-1-ol] | 0.957 | – | –
CCS(=O)(=O)n1cc([C@H]2C[C@@H]2C(=O)Nc2cc3cc(-c4cnccc4C)nc(N)c3cn2)cn1 (racemic) [Compound 146, (±)-trans-N-[8-amino-6-(4-methyl-3-pyridyl)-2,7-naphthyridin-3-yl]-2-(1-ethylsulfonylpyrazol-4-yl)cyclopropanecarboxamide] | 0.02 | – | –
CNC(=O)c1cncc(-c2cc3cc(NC(=O)[C@@H]4C[C@@H]4F)ncc3c(N)n2)c1C (racemic) [Compound 226, cis-5-(1-amino-6-(-2-fluorocyclopropanecarboxamido)-2,7-naphthyridin-3-yl)-N,4-dimethylnicotinamide] | 58.6 | – | –
Cc1ccncc1-c1cc2cc(NC(=O)[C@@H]3C[C@H]3C)ncc2c(N)n1 (racemic) [Compound 118, (±)-trans-N-(8-amino-6-(4-methylpyridin-3-yl)-2,7-naphthyridin-3-yl)-2-methylcyclopropane-1-carboxamide] | 0.476 | – | –
Cc1ccncc1-c1nc(N)c2cnc(NC(=O)C3CC3)cc2c1C1=CC(O)CC1 (racemic) [Compound 204, N-(8-amino-5-(3-hydroxycyclopent-1-enyl)-6-(4-methylpyridin-3-yl)-2,7-naphthyridin-3-yl)cyclopropanecarboxamide] | 0.99 | – | –
COCCN1CC[C@]2(C[C@@H]2C(=O)Nc2cc3cc(-c4cnccc4C)nc(N)c3cn2)C1 (racemic) [Compound 128, (±)-cis-N-(8-amino-6-(4-methylpyridin-3-yl)-2,7-naphthyridin-3-yl)-5-(2-methoxyethyl)-5-azaspiro[2.4]heptane-1-carboxamide] | 2.5 | – | –
Cc1ccncc1-c1cc2cc(NC(=O)[C@H]3C[C@]34CCN(S(C)(=O)=O)C4)ncc2c(N)n1 (racemic) [Compound 149, (±)-cis-N-(8-amino-6-(4-methylpyridin-3-yl)-2,7-naphthyridin-3-yl)-5-(methylsulfonyl)-5-azaspiro[2.4]heptane-1-carboxamide] | 0.78 | – | –
N#Cc1ccccc1-c1cc2cc(NC(=O)[C@H]3C[C@@H]3C#N)ncc2c(N)n1 (racemic) [Compound 224, (+/−)-trans-N-(8-amino-6-(2-cyanophenyl)-2,7-naphthyridin-3-yl)-2-cyanocyclopropanecarboxamide] | 15.2 | – | –
CNc1cncc(-c2cc3cc(NC(=O)[C@@H]4C[C@@H]4F)ncc3c(N)n2)c1C (racemic) [Compound 216, (+/−)-cis-N-(8-amino-6-(4-methyl-5-(methylamino)pyridin-3-yl)-2,7-naphthyridin-3-yl)-2-fluorocyclopropanecarboxamide] | 3.53 | – | –
N#C[C@H]1C[C@@H]1C(=O)Nc1cc2cc(-c3cnccc3CCO)nc(N)c2cn1 (racemic) [Compound 191, (±)-trans-N-(8-amino-6-(4-(2-hydroxyethyl)pyridin-3-yl)-2,7-naphthyridin-3-yl)-2-cyanocyclopropanecarboxamide] | 2.7 | – | –
Cc1nn(C)c(C)c1-c1cc2cc(NC(=O)[C@@H]3C[C@@H]3F)ncc2c(N)n1 (racemic) [Compound 3, (±)-cis-N-(8-amino-6-(1,3,5-trimethyl-1H-pyrazol-4-yl)-2,7-naphthyridin-3-yl)-2-fluorocyclopropanecarboxamide] | 5.14 | – | –
CCc1ccncc1-c1cc2cc(Nc3cc(C(O)CC)ccn3)ncc2c(N)n1 (racemic) [Compound 82, (±)-1-{2-[8-Amino-6-(4-ethylpyridin-3-yl)-[2,7]naphthyridin-3-ylamino]-pyridin-4-yl}propan-1-ol] | 0.4 | – | –
